In general, IC50 refers to the concentration that inhibits the measured activity by half.

Each structure is given as a SMILES string. Some results are limits rather than exact numbers.

Assay [1] addresses T1, FGFR2 (Homo sapiens, UniProt P21802, K310R/N549K).
T1 construct: in FGFR aberrations of AN3CA (FGFR2/k310R, N549K); host or cells: AN3CA
The assay can be described thus: pERK potency assay (In Cell ELISA), AN3CA cells. Conditions: for IC50: pERK, AN3CA (FGFR2/k310R, N549K) cells, 3 hours; for FGFR1 IC50/FGFR2 IC50 / FGFR3 IC50/FGFR2 IC50: selectivity ratio, pERK potency; for FGFR1 IC50/FGFR2 IC50: FGFR2 relative to FGFR1; for FGFR3 IC50/FGFR2 IC50: FGFR2 relative to FGFR3. The format is cell-based. In a few lines:
(§1)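 Cells with FGFR aberrations (DMS114 FGFR1 amplification, RT112 FGFR3-TACC3 fusion, AN3CA FGFR2 K310R/N549K) exposed 3 h at 37 °C to compound, final 0.000038–10 μM (4-fold dilutions). pERK (Thr202/Tyr204) quantified by In-Cell ELISA chemiluminescence; IC50 from 4-parameter sigmoidal fit.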
(An ELISA detects its analyte on a solid surface through an enzyme-linked reagent.)

The target in assay [2] is T2, FGFR1 (Homo sapiens, UniProt P11362).
T2 construct: DMS114 (FGFR1 amplification); host or cells: DMS114
T2 sequence (P11362 22-822): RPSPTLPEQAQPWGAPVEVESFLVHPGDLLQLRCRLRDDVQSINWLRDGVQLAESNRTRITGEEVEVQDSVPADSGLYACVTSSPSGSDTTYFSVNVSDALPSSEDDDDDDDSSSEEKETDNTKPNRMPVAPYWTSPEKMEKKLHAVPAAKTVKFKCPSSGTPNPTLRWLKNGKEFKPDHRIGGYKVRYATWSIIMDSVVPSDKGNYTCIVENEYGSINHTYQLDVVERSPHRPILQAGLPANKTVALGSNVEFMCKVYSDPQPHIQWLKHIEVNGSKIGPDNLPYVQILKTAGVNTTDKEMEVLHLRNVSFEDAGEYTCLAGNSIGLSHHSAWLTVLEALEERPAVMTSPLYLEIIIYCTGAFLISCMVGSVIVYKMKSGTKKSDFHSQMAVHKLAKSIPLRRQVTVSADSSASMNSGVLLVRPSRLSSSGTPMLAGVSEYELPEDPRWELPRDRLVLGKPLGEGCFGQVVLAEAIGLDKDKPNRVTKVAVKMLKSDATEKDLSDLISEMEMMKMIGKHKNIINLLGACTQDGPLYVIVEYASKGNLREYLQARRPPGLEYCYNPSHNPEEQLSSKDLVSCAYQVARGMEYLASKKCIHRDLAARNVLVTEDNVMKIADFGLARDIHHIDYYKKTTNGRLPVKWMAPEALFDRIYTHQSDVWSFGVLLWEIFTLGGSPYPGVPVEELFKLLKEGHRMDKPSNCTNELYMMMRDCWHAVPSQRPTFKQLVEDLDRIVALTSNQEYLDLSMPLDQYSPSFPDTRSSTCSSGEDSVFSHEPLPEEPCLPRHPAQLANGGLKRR
Put plainly: pERK potency assay (In Cell ELISA), DMS114 cells. The assay is classed as cell-based. Conditions: DMS114 (FGFR1 amplification) cells, 3 hours. In a few lines: as §1

Assay [3] concerns the target T3, FGFR3 (Homo sapiens, UniProt P22607).
T3 construct: RT112 (FGFR3 overexpression/FGFR3-TACC3 fusion); host or cells: RT112; the other entry of the earlier key: TACC3 (Q9Y6A5, Transforming acidic coiled-coil-containing protein 3)
Put plainly: pERK potency assay (In Cell ELISA), RT112 cells. The assay is classed as cell-based. Conditions: RT112 (FGFR3 overexpression/FGFR3-TACC3 fusion) cells, 3 hours. In a few lines:
as §1

Assay [4] has as its system AN3CA. The assay can be described thus: 2D cell proliferation assay, AN3CA. The assay is classed as cell-based. Conditions: Homo sapiens, AN3-CA, 96 hours, CTG, read-out: Cell Line, IC50 AN3CA. The procedure: (§2) Low IC50 values are indicative of the high potency of the FGFR inhibitor compounds in this assay selling. […] Cell proliferation assays are performed in two-dimensional (2D)) anchorage-dependent conditions in 96 well plates (Corning® Black/Clear flat Bottom, Cat #3603) with the following cell lines: • Ba/F3 FGFR2-BICC1 (human […]): Mouse Ba/F3 cell line stably expressed exogenous human FGFR2-BICC1 fusion gene bearing V546F mutation in FGFR2 Ba/F3; • FGFR2-BICC1 (human FGFR2/[…]): Mouse Ba/F3 cell line stably expressed exogenous human FGFR2-BICC1 fusion gene bearing N549K mutation in FGFR2; • Snu-16: human gastric cancer cell with FGFR2 amplification; • KATO III: human gastric cancer cell with FGFR2 amplification; • AN3CA: Human endometrial cancer with FGFR2 mutation (k310R, N549K); • MFM-223: Human breast cancer with FGFR1/2 amplification; • MFE-296: Human endometrial cancer with FGFR2 mutation (N549K); • MFE-280: Human endometrial cancer with FGFR2 mutation ([…]); • NCI-H1581: human non-small cell lung cancer with FGFR1 amplification; • KG-1a: Acute myelogenous leukemia with FGFR1OP2-FGFR1 translocation; • DMS114: human small cell carcinoma of the lung with FGFR1 amplification; • RT112: human bladder cancer with FGFR3 overexpression/FGFR3-TACC3 fusion; • SW780: human bladder cancer with FGFR3 overexpression/FGFR3-BALAP2L1 fusion; • Hep3B: Liver cancer with FGF19 amplification (FGFR4 ligand); • AGS: Human gastric adenocarcinoma with Kras G12D mutation and FGFR wild type; • PC-9: human non-small cell lung cancer (NSCLC) with wild-type FGFR and an EGFR del19 mutation; or • H1975: human non-small cell lung cancer (NSCLC) with wild-type FGFR and EGFR L858R/T790M mutation.
(§3) Cell lines are purchased from the American Type Culture Collection (ATCC) or Sigma. All cell lines are maintained in RPMI-1640 or DMEM supplemented with 10% heat-inactivated fetal bovine serum.
(§4) Cells growing in the log phase are detached with Gibco™ TrypLE™ Express Enzyme and plated in 96 well plate at 3000 to 5000 cells/well in 100 μl of media. After overnight incubation at 37° C., 5% CO2 incubator, cells are treated with compounds (50 uL/well) at the final concentrations spanning from 0.000038 uM to 10 μM (4-fold serial dilution for total of 10 points). Cells are incubated at 37° C., 5% CO2, and 95% humidity incubator for 96 hours. At the end of incubation 2D CTG reagent from Promega was added to each well according to vendors recommendation and mixed for 10 min in dark. The luminescence signals are determined with a Biotek™ plate reader. Data is fitted using a sigmoidal curve analysis program (GraphPad Prism®) with variable hill slope and IC50 is determined.

For assay [5], the target named is T4, Ba/F3 FGFR2-N549K (Homo sapiens, UniProt P21802, N549K, cells depend on it).
T4 construct: fused on or other part: Q9H694 (Protein bicaudal C homolog 1)
T4 sequence (P21802 whole entry N549K, the tested form may be a part): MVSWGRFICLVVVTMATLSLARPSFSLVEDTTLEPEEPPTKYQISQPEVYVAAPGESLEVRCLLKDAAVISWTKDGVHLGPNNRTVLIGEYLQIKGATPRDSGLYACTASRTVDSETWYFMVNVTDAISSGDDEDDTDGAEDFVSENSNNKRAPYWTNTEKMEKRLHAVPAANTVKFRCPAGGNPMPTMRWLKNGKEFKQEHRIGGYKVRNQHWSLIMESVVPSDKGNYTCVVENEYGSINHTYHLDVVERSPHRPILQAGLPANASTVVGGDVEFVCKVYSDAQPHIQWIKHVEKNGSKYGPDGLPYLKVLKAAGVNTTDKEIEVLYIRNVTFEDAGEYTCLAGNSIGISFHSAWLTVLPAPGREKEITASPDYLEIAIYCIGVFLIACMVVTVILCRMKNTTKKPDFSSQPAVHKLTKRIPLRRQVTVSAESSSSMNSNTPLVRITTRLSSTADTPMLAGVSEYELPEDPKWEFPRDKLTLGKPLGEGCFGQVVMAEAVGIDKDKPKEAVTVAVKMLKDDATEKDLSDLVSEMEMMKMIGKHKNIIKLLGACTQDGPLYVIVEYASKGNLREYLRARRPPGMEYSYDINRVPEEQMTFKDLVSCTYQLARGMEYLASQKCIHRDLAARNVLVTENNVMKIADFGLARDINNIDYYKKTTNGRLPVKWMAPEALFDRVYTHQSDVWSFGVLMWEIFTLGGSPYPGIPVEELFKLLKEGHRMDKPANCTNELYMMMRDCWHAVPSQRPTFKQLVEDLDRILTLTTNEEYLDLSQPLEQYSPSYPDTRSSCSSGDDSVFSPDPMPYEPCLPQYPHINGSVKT
The assay can be described thus: 2D cell proliferation assay, Ba/F3 FGFR2-N549K. Conditions: 96 hours, CTG, read-out: Cell Line, IC50 Ba/F3 FGFR2-N549K. The format is cell-based, mouse. The procedure:
as §2, §3, §4

Assay [6] has as its target T5, Ba/F3 FGFR2-V564F (Homo sapiens, UniProt P21802, V564F, cells depend on it).
T5 construct: fused on or other part: Q9H694 (Protein bicaudal C homolog 1)
The assay can be described thus: 2D cell proliferation assay, Ba/F3 FGFR2-V564F. The assay is classed as cell-based, mouse. Conditions: 96 hours, CTG, read-out: Cell Line, IC50 Ba/F3 FGFR2-V564F. Here is the method: as §2, §3, §4

For assay [7], the system named is KATO III. Put plainly: 2D cell proliferation assay, KATO III. The assay is classed as cell-based. Conditions: Homo sapiens, 96 hours, CTG, read-out: Cell Line, IC50 KATO III. The procedure: as §2, §3, §4
For assay [8], the system named is SNU-16. Put plainly: 2D cell proliferation assay, SNU-16. The assay is classed as cell-based. Conditions: Homo sapiens, 96 hours, CTG, read-out: Cell Line, IC50 SNU-16. Here is the method: as §2, §3, §4

T5 sequence (P21802 whole entry V564F, the tested form may be a part): as the sequence (P21802 whole entry N549K, the tested form may be a part) above, with K549N, V564F counted along it
T1 sequence (P21802 22-821 K310R/N549K): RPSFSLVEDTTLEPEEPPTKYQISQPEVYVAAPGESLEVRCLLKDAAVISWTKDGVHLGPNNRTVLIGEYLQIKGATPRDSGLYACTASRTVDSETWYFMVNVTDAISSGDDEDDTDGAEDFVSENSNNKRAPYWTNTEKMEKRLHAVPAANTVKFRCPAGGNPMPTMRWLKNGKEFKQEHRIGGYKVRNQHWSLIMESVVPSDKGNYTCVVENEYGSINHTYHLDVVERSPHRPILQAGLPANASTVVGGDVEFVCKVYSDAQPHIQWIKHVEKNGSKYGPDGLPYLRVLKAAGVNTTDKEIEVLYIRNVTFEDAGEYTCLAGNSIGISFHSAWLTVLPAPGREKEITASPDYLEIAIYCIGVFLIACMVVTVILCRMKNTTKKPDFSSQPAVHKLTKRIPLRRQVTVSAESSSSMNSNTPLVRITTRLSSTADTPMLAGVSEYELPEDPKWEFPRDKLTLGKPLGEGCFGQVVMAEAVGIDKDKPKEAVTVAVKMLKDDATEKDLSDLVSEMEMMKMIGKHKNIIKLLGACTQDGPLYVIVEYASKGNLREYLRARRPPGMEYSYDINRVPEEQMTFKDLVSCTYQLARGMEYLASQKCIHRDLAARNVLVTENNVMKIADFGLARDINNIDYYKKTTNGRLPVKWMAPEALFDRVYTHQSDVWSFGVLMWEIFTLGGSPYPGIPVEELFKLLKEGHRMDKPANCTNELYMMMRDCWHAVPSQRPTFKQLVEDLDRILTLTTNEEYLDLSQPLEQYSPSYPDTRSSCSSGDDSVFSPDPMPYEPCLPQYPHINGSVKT

`C=CC(=O)N1CCC2(CC=C(c3c(-c4ccc(F)cc4)c4c(N)ncnc4n3C)CC2)CC1` [Example 11, 1-(9-(4-amino-5-(4-fluorophenyl)-7-methyl-7H-pyrrolo[2,3-d]pyrimidin-6-yl)-3-azaspiro[5.5]undec-8-en-3-yl)prop-2-en-1-one]: the IC50 in assay [1] was 1 to 10 nM; in assay [2], > 100 nM; in assay [3], > 100 nM; in assay [4], 30 to 100 nM; in assay [7], 30 to 100 nM; in assay [8], 10 to 30 nM. For the same molecule, in assay [1], the “FGFR1 IC50/FGFR2 IC50” value was “I (a selectivity ratio greater than 1000 but less than or equal to 2000)”. Also, the “FGFR3 IC50/FGFR2 IC50” value in assay [1] is reported as “J (a selectivity ratio greater than 2000)”. In addition, the GI50 fell in the range of 1 to 10 nM in assay [5] and 30 to 100 nM in assay [6].
For `C=CC(=O)N1CCC2(CC=C(c3c(-c4ccc(OC5CC5)cc4)c4c(N)ncnc4n3C)CC2)CC1` [Example 18, 1-(9-(4-amino-5-(4-cyclopropoxyphenyl)-7-methyl-7H-pyrrolo[2,3-d]pyrimidin-6-yl)-3-azaspiro[5.5]undec-8-en-3-yl)prop-2-en-1-one], the IC50 was ≤ 1 nM in assay [1]; > 100 nM in assay [2]; > 100 nM in assay [3]; 10 to 30 nM in assay [4]; 1 to 10 nM in assay [7]; 1 to 10 nM in assay [8]. For the same molecule, the “FGFR1 IC50/FGFR2 IC50” value in assay [1] is “G (a selectivity ratio greater than 150 but less than or equal to 500)”. In addition, the “FGFR3 IC50/FGFR2 IC50” value in assay [1] is “G (a selectivity ratio greater than 150 but less than or equal to 500)”. In addition, the GI50 in assay [5] and in assay [6] was 1 to 10 nM each time.
`C=CC(=O)N1CCC2(CC=C(c3c(-c4ccc(OC5CC5)nc4)c4c(N)ncnc4n3C)CC2)CC1` [Example 22, 1-(9-(4-amino-5-(6-cyclopropoxypyridin-3-yl)-7-methyl-7H-pyrrolo[2,3-d]pyrimidin-6-yl)-3-azaspiro[5.5]undec-8-en-3-yl)prop-2-en-1-one]: the IC50 in assay [1] was 1 to 10 nM; in assay [2], > 100 nM; in assay [3], > 100 nM; in assay [4] it was 10 to 30 nM; in assay [7], 1 to 10 nM; in assay [8], 1 to 10 nM. The “FGFR1 IC50/FGFR2 IC50” value in assay [1] is “G (a selectivity ratio greater than 150 but less than or equal to 500)”. Further, the “FGFR3 IC50/FGFR2 IC50” value in assay [1] is on record as “G (a selectivity ratio greater than 150 but less than or equal to 500)”. In addition, the GI50 in assay [5] and in assay [6] was 1 to 10 nM each time.
Take `C=CC(=O)N1CCC2(CC=C(c3c(-c4cnc(OC5CC5)c(F)c4)c4c(N)ncnc4n3C)CC2)CC1` [Example 23, 1-(9-(4-amino-5-(6-cyclopropoxy-5-fluoropyridin-3-yl)-7-methyl-7H-pyrrolo[2,3-d]pyrimidin-6-yl)-3-azaspiro[5.5]undec-8-en-3-yl)prop-2-en-1-one]: the IC50 is 1 to 10 nM in assay [1]; > 100 nM in assay [2]; > 100 nM in assay [3]; 10 to 30 nM in assay [4]; 1 to 10 nM in assay [7]; 1 to 10 nM in assay [8]. The “FGFR1 IC50/FGFR2 IC50” value in assay [1] is “G (a selectivity ratio greater than 150 but less than or equal to 500)”. Further, the “FGFR3 IC50/FGFR2 IC50” value in assay [1] is “H (a selectivity ratio greater than 500 but less than or equal to 1000)”. Also, the GI50 is 1 to 10 nM in assay [5] and 10 to 30 nM in assay [6].
As for `C=CC(=O)N1CCC2(CC=C(c3c(-c4ccc(OC5CCCC5)nc4)c4c(N)ncnc4n3C)CC2)CC1` [Example 24, 1-(9-(4-amino-5-(6-(cyclopentyloxy)pyridin-3-yl)-7-methyl-7H-pyrrolo[2,3-d]pyrimidin-6-yl)-3-azaspiro[5.5]undec-8-en-3-yl)prop-2-en-1-one], the IC50 in assay [1] is 1 to 10 nM; in assay [2], > 100 nM; in assay [3], > 100 nM; in assay [4], 10 to 30 nM; in assay [7], 10 to 30 nM; in assay [8], 10 to 30 nM. For the same molecule, the “FGFR1 IC50/FGFR2 IC50” value in assay [1] is listed as “F (a selectivity ratio greater than 50 but less than or equal to 150)”. Further, in assay [1], the “FGFR3 IC50/FGFR2 IC50” value is “F (a selectivity ratio greater than 50 but less than or equal to 150)”. Besides, the GI50 in assay [5] is 1 to 10 nM; in assay [6], 30 to 100 nM.
With `C=CC(=O)N1CCC2(CC=C(c3c(-c4ccc(OC5CCC5)nc4)c4c(N)ncnc4n3C)CC2)CC1` [Example 26, 1-(9-(4-amino-5-(6-cyclobutoxypyridin-3-yl)-7-methyl-7H-pyrrolo[2,3-d]pyrimidin-6-yl)-3-azaspiro[5.5]undec-8-en-3-yl)prop-2-en-1-one], the IC50 in assay [1] is 1 to 10 nM; in assay [2], > 100 nM; in assay [3] it was > 100 nM; in assay [4], 10 to 30 nM; in assay [7], 1 to 10 nM; in assay [8], 1 to 10 nM. Moreover, the “FGFR1 IC50/FGFR2 IC50” value in assay [1] is “F (a selectivity ratio greater than 50 but less than or equal to 150)”. Besides, the “FGFR3 IC50/FGFR2 IC50” value in assay [1] was “G (a selectivity ratio greater than 150 but less than or equal to 500)”. Further, the GI50 in assay [5] and in assay [6] was 1 to 10 nM throughout.
Turning to `C=CC(=O)N1CCC2(CC=C(c3c(-c4cnc(OC)c(F)c4)c4c(N)ncnc4n3C)CC2)CC1` [Example 28, 1-(9-(4-amino-5-(5-fluoro-6-methoxypyridin-3-yl)-7-methyl-7H-pyrrolo[2,3-d]pyrimidin-6-yl)-3-azaspiro[5.5]undec-8-en-3-yl)prop-2-en-1-one], the IC50 was 1 to 10 nM in assay [1]; > 100 nM in assay [2]; > 100 nM in assay [3]; 10 to 30 nM in assay [4]; 1 to 10 nM in assay [7]; 1 to 10 nM in assay [8]. Further, the “FGFR1 IC50/FGFR2 IC50” value in assay [1] is listed as “F (a selectivity ratio greater than 50 but less than or equal to 150)”. Further, the “FGFR3 IC50/FGFR2 IC50” value in assay [1] is reported as “G (a selectivity ratio greater than 150 but less than or equal to 500)”. The GI50 is 1 to 10 nM in assay [5] and 10 to 30 nM in assay [6].

For the origin of these results see patent publication US20260152503A1, “SPIROBICYCLIC COMPOUNDS” (ACERAND THERAPEUTICS (HONG KONG) LIMITED, priority 2022, published 2026).
